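In this assay, cells in 96-well plates receive the compound at five concentrations for 48 hours. Endpoints are linearly interpolated between the surrounding concentrations. The concentration for 50% growth inhibition is given as GI50.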 Calls of active or inactive are those of the source. Cut-off read from the data, not from the text of the source: active = GI50 up to about 1.1 µM and inactive = higher.
Key:
Assay in all cases: NCI-60 cell line screen, 48 h
[1] = system: A498
[2] = system: OVCAR-3
[3] = system: M19-MEL
[4] = system: HOP-18
[5] = system: OVCAR-8
[6] = system: SK-MEL-2
[7] = system: HL-60
[8] = system: LXFL 529
[9] = system: KM-20L2
[10] = system: U-251
[11] = system: UACC-62
[12] = system: DLD-1
[13] = system: HOP-92

Measured: GI50

CN(C)c1n/c(=N/c2ccc(/N=c3\nc(N(C)C)ss3)cc2)ss1
inactive: [1] 33 µM | [2] 28.2 µM | [3] 20.3 µM | [4] 54 µM | [5] 16.7 µM | [6] 69.5 µM | [7] 12.4 µM | [8] > 33.5 µM | [9] 48.3 µM | [10] 29.9 µM | [11] 3.38 µM | [12] 13.4 µM | [13] > 100 µM

N#CC1(CCCI)CCCC1
inactive: [1] 35.9 µM | [2] 16 µM | [3] 5.36 µM | [4] 13.5 µM | [5] 51.1 µM | [6] 15.9 µM | [7] 6.1 µM | [8] 23.2 µM | [9] 22.6 µM | [10] 13.4 µM | [11] 11 µM | [12] 19.1 µM | [13] 15.6 µM

COc1cc(C(=O)C/C(CCC(=O)Nc2ccc(Cl)cc2Cl)=N/NC(=O)C(=O)NN)ccc1O
inactive: [1] > 100 µM | [2] > 100 µM | [3] > 100 µM | [4] > 100 µM | [5] > 100 µM | [7] > 100 µM | [8] > 100 µM | [9] > 100 µM | [10] > 100 µM | [11] 53.8 µM | [12] > 100 µM | [13] > 100 µM

CC1(C)COC2C(N(Cc3ccccc3)Cc3ccccc3)C(=O)N21 (stereo not drawn)
inactive: [1] 48.8 µM | [2] 30.5 µM | [3] 73.8 µM | [4] 50 µM | [5] 32.1 µM | [7] 22.3 µM | [8] 51.3 µM | [9] 37.1 µM | [10] 26.3 µM | [11] 25.1 µM | [12] 50 µM | [13] 29.3 µM

CCOC(=O)Nc1ccc(S(=O)(=O)NCCCl)cc1.CCOC(=O)Nc1ccc(S(=O)(=O)NCCCl)cc1.O=C(O)c1ccc(/N=N/Cl)cc1O
inactive: [1] > 100 µM | [2] > 100 µM | [3] > 100 µM | [4] > 100 µM | [5] > 100 µM | [6] > 100 µM | [7] > 100 µM | [8] > 100 µM | [9] > 100 µM | [10] > 100 µM | [11] > 100 µM | [12] > 100 µM | [13] > 100 µM

From ChEMBL document CHEMBL1201862, “PubChem BioAssay data set” (2004)
